Assay results taken from patent EP4692071A1, “PHOTOCHROMIC COMPOUND, NAPHTHOL DERIVATIVE, CURABLE COMPOSITION, OPTICAL ARTICLE, LENS, AND EYEGLASS” (TOKUYAMA CORPORATION, priority 2023, dated 2024).
Values joined by “and” are separate entries in the source; they are usually repeats but may differ in a detail not shown here. Equal entries are not always repeated.

Legend:
Format in all cases: physicochemical
[1] = Maximum absorption wavelength (λmax) after color development, spectrophotometer MCPD3000; conditions: for Maximum absorption wavelength: after color development
Summary of the method: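 Read-out: absorbance at λmax, multichannel photodetector spectrophotometer. Colour density = ε(240) − ε(0), 240 s light, 23°C. τ1/2 = time for ε(240) − ε(0) to halve after light off. Residual rate compares density before and after 90 h xenon weathering.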

[2] = 23°C color optical density (A23): absorbancy difference ε(240)-ε(0) after 240 s light irradiation at 23°C; conditions: 240 s irradiation; for 23°C color optical density (-): comparative compounds
Summary of the method: (§1)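 Photochromic plastic lens samples were irradiated for 240 s at 23°C, and colour density was taken as the absorbance change at the absorption maximum. Fading half-life was timed from the end of irradiation until that absorbance change fell by half. Durability compared colour density before and after xenon-lamp ageing.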

[3] = 35°C color optical density (A35): absorbancy difference ε(240)-ε(0) after 240 s light irradiation at 35°C; conditions: 240 s irradiation; for 35°C color optical density (-): comparative compounds
Summary of the method: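 Color optical density at 35°C (A35) came from light exposure of the sample at 35°C lasting 240 seconds. At the first and second absorption wavelengths, the absorbancy before irradiation, ε(0), was subtracted from the absorbancy measured after irradiation, ε(240). This difference was taken as the measure of color optical density.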

[4] = High-temperature color development rate (A35/A23×100), temperature dependency; conditions: for Temperature change rate (%): comparative compounds, corresponds to A35/A23×100
Summary of the method: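 The sample was irradiated with light for 240 seconds at 23°C and separately at 35°C. The gain in absorbance over the unirradiated state, ε(240)−ε(0), gave the color optical densities A23 and A35. A35 divided by A23, multiplied by 100, expressed how well color development holds up at the higher temperature.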

[5] = 23°C color fading half-life τ1/2 after 240 s light irradiation
Method: • [1] Maximum Absorption Wavelength (λmax): The maximum absorption wavelength after color development, measured using a spectrophotometer (instantaneous multichannel photodetector MCPD3000) manufactured by Otsuka Electronics Co., Ltd. was used as an indicator for the color tone during the color development. • [2] 23°C Color Optical Density (A23): A difference between an absorbancy measured after light irradiation at 23°C for 240 seconds {ε(240)} and an absorbancy without light irradiation ε(0) at the maximum absorption wavelength was used as an indicator for the color optical density. […] 35°C Color Optical Density (A35): A difference between an absorbancy measured after light irradiation at 35°C for 240 seconds {ε(240)} and an absorbancy without light irradiation ε(0) at the first and second absorption wavelengths was used as an indicator for the color optical density. […] 23°C color fading half-life [τ1/2 (sec.)]: A time required for the absorbancy of the sample at the maximum absorption wavelength to decrease to 1/2 of {ε(240)-ε(0)} when the light irradiation is terminated after the light irradiation at 23°C for 240 seconds, was used as an indicator for the color fading speed. The shorter this time, the higher the color fading speed. • [6] Residual rate (A90/A0×100): The obtained photochromic plastic lens was subjected to accelerated deterioration using a xenon weather meter X25 manufactured by Suga Test Instruments Co., Ltd. for 90 hours. Subsequently, the color optical density was evaluated before and after the test, then a color optical density before the test (A0) and a color optical density after the test (A90) were measured, and a ratio (A90/A0) was defined as a residual rate. The residual rate was used as an indicator for a color developing durability. The higher the residual rate, the higher the color developing durability.

[6] = Residual rate (A90/A0×100) after 90 h accelerated deterioration in xenon weather meter X25, color developing durability; conditions: for Residual rate (%): xenon weather meter 90 hours; for Residual rate: after 90 h accelerated deterioration
Summary of the method: as §1

[7] = photochromic laminate by coating method, 40 µm photochromic layer on thiourethane lens, 0.25 mmol compound per 100 g monomers
[8] = photochromic laminate by coating method, at the maximum absorption wavelength
[9] = photochromic laminate by coating method
[10] = photochromic laminate by coating method, at 522 nm absorption maximum
[11] = photochromic laminate by coating method, at 615 nm absorption maximum
[12] = photochromic laminate prepared by coating method
[13] = binder sheet (binder method), urethaneurea resin photochromic layer between polycarbonate sheets, 0.25 mmol per 100 parts by mass resin

| SMILES | Maximum absorption wavelength (nm) [1, 7] | A23 (-) [2, 8] | A35 (-) [3, 9] | A35/A23 *100 (%) [4, 9] [%] | 23°C color fading half-life [5] [min] | Residual rate (%) [6, 9] [%] | other results |
| --- | --- | --- | --- | --- | --- | --- | --- |
| CCCOc1ccc(C2(c3ccc(OC)cc3)C=Cc3c4c(c5cc(N(c6ccc(C(F)(F)F)cc6)c6ccc(C(F)(F)F)cc6)c(OC)cc5c3O2)-c2ccccc2C4(CCCCOC)CCCCOC)cc1 (stereo not drawn) [Example 11 Formula (63)] | – | – | – | 61 | 0.667 | 83 | Maximum absorption wavelength (nm) ([1]; photochromic laminate by coating method, 40 µm photochromic layer on thiourethane lens, 0.25 mmol compound per 100 g monomers, at 462 nm absorption maximum): 462 nm; Maximum absorption wavelength (nm) ([1]; photochromic laminate by coating method, 40 µm photochromic layer on thiourethane lens, 0.25 mmol compound per 100 g monomers, at 576 nm absorption maximum): 576 nm; A23 (-) ([2]; photochromic laminate by coating method, at the maximum absorption wavelength, at 462 nm absorption maximum): 0.75 -; A23 (-) ([2]; photochromic laminate by coating method, at the maximum absorption wavelength, at 576 nm absorption maximum): 0.66 -; A35 (-) ([3]; photochromic laminate by coating method, at 462 nm absorption maximum): 0.46 -; A35 (-) ([3]; photochromic laminate by coating method, at 576 nm absorption maximum): 0.41 - |
| CCCCN(c1ccc(F)cc1)c1cc2c3c(c4c(c2cc1OC)OC(c1ccc(OC)cc1)(c1ccc(OC)cc1)C=C4)C(CCCCOC)(CCCCOC)c1ccccc1-3 [Example 16 Formula (77)] | 498 nm | 1.25 - | 0.84 - | 67 | 1.2 | 80 | – |
| CCCCN(c1ccc(C(F)(F)F)cc1)c1cc2c3c(c4c(c2cc1OC)OC(c1ccc(C)cc1)(c1ccc(OC)cc1)C=C4)C1(CCCCCCCCCCC1)c1cc(OC)ccc1-3 (stereo not drawn) [Example 54 Formula (123)] | 453 nm and 583 nm | 0.82 - and 1.08 - | 0.60 - and 0.80 - | 74 | 2.92 | 78 | – |
| CCCCC1(CCCC)c2cc(C(F)(F)F)ccc2-c2c1c1c(c3cc(C)c(N4CCc5ccccc54)cc23)OC(c2ccc(OC)cc2)(c2ccc(OC)c(C)c2)C=C1 (stereo not drawn) [Formula (64A)] | – | – | – | – | 1.1 | – | Maximum absorption wavelength [1, 12]: 523 nm; A35/A23 *100 [4, 12]: 65%; Residual rate [6, 12]: 64% |
| CCCc1ccc(C2(c3ccc(OC)cc3)C=Cc3c4c(c5cc(N6CCc7ccccc76)c(OC)cc5c3O2)-c2ccc(-c3ccc(C(F)(F)F)cc3)cc2C4(CCOC)CCOC)cc1 (stereo not drawn) [Formula (85A)] | – | – | – | – | 0.933 | – | Maximum absorption wavelength [1, 12]: 530 nm; A35/A23 *100 [4, 12]: 69%; Residual rate [6, 12]: 65% |
| COc1ccc(C2(c3ccc(OC)cc3)C=Cc3c4c(c5cc(N6CCCCC6)c(OC)cc5c3O2)-c2ccccc2C4(C)C)cc1 [Formula (E), reference compound] | 481 nm | – | – | – | – | 51 | Maximum absorption wavelength (nm) [1, 13]: 481 nm; Maximum absorption wavelength ([1]; binder sheet (binder method)): 481 nm; Maximum absorption wavelength [1, 12]: 481 nm; A23 (-) ([2]; binder sheet (binder method)): 1.85 -; 23°C color optical density (-) [2, 9]: 1.81 -; A35 (-) ([3]; binder sheet (binder method)): 1.30 -; 35°C color optical density (-) [3, 9]: 1.28 -; A35/A23 *100 ([4]; binder sheet (binder method)): 70%; A35/A23 *100 (%) ([4]; binder sheet (binder method)): 70%; Temperature change rate (%) [4, 9]: 71%; A35/A23 *100 [4, 12]: 71%; Residual rate ([6]; binder sheet (binder method)): 68%; Residual rate (%) ([6]; binder sheet (binder method)): 68%; Residual rate [6, 12]: 51% |
| COc1ccc(C2(c3ccc(OC)cc3)C=Cc3c4c(c5cc(N6CCc7ccccc7C6)c(OC)cc5c3O2)-c2ccccc2C4(C)C)cc1 [Formula (F), reference compound] | 481 nm | – | – | – | – | 50 | Maximum absorption wavelength (nm) [1, 13]: 481 nm; A23 (-) ([2]; binder sheet (binder method)): 1.85 -; 23°C color optical density (-) [2, 9]: 1.81 -; A35 (-) ([3]; binder sheet (binder method)): 1.30 -; 35°C color optical density (-) [3, 9]: 1.28 -; A35/A23 *100 (%) ([4]; binder sheet (binder method)): 70%; Temperature change rate (%) [4, 9]: 71%; Residual rate (%) ([6]; binder sheet (binder method)): 64% |

Now from value to compound, other results behind:

| Maximum absorption wavelength (nm) [1, 7] | A23 (-) [2, 8] | A35 (-) [3, 9] | A35/A23 *100 (%) [4, 9] [%] | 23°C color fading half-life [5] [min] | Residual rate (%) [6, 9] [%] | SMILES | other results |
| --- | --- | --- | --- | --- | --- | --- | --- |
| 442 nm | 1.19 - | 0.79 - | 66 | 1.5 | 73 | COCCCCC1(CCCCOC)c2ccccc2-c2c1c1c(c3cc(C)c(N(C)c4ccccc4)cc23)OC(c2ccc(C)cc2)(c2ccc(OC)cc2)C=C1 (stereo not drawn) [Example 5 Formula (43)] | – |
| – | – | – | 62 | 0.733 | – | CCCC1(CCC)c2ccccc2-c2c1c1c(c3cc(OC)c(N(c4ccccc4)c4ccccc4)cc23)OC(c2ccc(OC)cc2)(c2ccc(N3CCOCC3)cc2)C=C1 (stereo not drawn) [Example 7 Formula (50)] | Maximum absorption wavelength (nm) ([1]; photochromic laminate by coating method, 40 µm photochromic layer on thiourethane lens, 0.25 mmol compound per 100 g monomers, at 522 nm absorption maximum): 522 nm; Maximum absorption wavelength (nm) ([1]; photochromic laminate by coating method, 40 µm photochromic layer on thiourethane lens, 0.25 mmol compound per 100 g monomers, at 615 nm absorption maximum): 615 nm; A23 (-) ([2]; photochromic laminate by coating method, at the maximum absorption wavelength, at 522 nm absorption maximum): 1.19 -; A23 (-) ([2]; photochromic laminate by coating method, at the maximum absorption wavelength, at 615 nm absorption maximum): 1.14 -; A35 (-) [3, 10]: 0.74 -; A35 (-) [3, 11]: 0.71 -; Residual rate (%) [6, 10]: 77%; Residual rate (%) [6, 11]: 76% |
| 493 nm | 1.25 - | 0.88 - | 70 | 1.63 | 78 | CCCC1(CCC)c2cc(C)ccc2-c2c1c1c(c3cc(OC)c(N(C)c4ccccc4)cc23)OC(c2ccc(OC)cc2)(c2ccc(OC)cc2)C=C1 [Example 18 Formula (81)] | – |
| 524 nm | 1.26 - | 0.87 - | 69 | 1.62 | 80 | CCCC1(CCC)c2ccccc2-c2c1c1c(c3cc(OC)c(N(C)c4ccccc4)cc23)OC(c2ccc(OC)cc2)(c2ccc(N(c3ccccc3)c3ccccc3)cc2)C=C1 (stereo not drawn) [Example 21 Formula (87)] | – |
| 530 nm | 1.51 - | 1.03 - | 68 | 1.25 | 76 | CCCC1(CCC)c2ccccc2-c2c1c1c(c3cc(OC)c(N(c4ccccc4)c4ccccc4)cc23)OC(c2ccc(C)cc2)(c2ccc(N(C)c3ccccc3)cc2)C=C1 (stereo not drawn) [Example 22 Formula (89)] | – |
| 501 nm | 0.98 - | 0.61 - | 62 | 0.633 | 75 | CCCCN(c1ccccc1)c1cc2c3c(c4c(c2cc1OC)OC(c1ccc(OC)cc1)(c1ccc(OCCC)cc1)C=C4)C(CC)(CC)c1cc(OC(F)(F)F)ccc1-3 (stereo not drawn) [Example 51 Formula (117)] | – |
| – | – | – | – | 1.05 | – | CCCOc1ccc(C2(c3ccc(OC)cc3)C=Cc3c4c(c5cc(N6CCc7ccccc76)c(C)cc5c3O2)-c2ccccc2C4(CCC)CCC)cc1 (stereo not drawn) [Formula (31A)] | Maximum absorption wavelength [1, 12]: 520 nm; A35/A23 *100 [4, 12]: 65%; Residual rate [6, 12]: 67% |
